Assay results from patent US9932314B2, “Pyrazole compounds and their use as T-type calcium channel blockers” (IDORSIA PHARMACEUTICALS LTD, priority 2015, dated 2018).

These molecules were tested against T1, voltage-dependent T-type calcium channel subunit alpha-1G (Cav3.2) (Homo sapiens, UniProt O95180) (assay: FLIPR calcium flux assay, HEK293 cells recombinantly expressing Cav3.2). Conditions: Cav3.2-channel, Fluo-4-AM, 3 min incubation, stimulation with 10 mM CaCl2.
T1 construct: expressed in transfected cells; host or cells: HEK293
T1 sequence (O95180 whole entry): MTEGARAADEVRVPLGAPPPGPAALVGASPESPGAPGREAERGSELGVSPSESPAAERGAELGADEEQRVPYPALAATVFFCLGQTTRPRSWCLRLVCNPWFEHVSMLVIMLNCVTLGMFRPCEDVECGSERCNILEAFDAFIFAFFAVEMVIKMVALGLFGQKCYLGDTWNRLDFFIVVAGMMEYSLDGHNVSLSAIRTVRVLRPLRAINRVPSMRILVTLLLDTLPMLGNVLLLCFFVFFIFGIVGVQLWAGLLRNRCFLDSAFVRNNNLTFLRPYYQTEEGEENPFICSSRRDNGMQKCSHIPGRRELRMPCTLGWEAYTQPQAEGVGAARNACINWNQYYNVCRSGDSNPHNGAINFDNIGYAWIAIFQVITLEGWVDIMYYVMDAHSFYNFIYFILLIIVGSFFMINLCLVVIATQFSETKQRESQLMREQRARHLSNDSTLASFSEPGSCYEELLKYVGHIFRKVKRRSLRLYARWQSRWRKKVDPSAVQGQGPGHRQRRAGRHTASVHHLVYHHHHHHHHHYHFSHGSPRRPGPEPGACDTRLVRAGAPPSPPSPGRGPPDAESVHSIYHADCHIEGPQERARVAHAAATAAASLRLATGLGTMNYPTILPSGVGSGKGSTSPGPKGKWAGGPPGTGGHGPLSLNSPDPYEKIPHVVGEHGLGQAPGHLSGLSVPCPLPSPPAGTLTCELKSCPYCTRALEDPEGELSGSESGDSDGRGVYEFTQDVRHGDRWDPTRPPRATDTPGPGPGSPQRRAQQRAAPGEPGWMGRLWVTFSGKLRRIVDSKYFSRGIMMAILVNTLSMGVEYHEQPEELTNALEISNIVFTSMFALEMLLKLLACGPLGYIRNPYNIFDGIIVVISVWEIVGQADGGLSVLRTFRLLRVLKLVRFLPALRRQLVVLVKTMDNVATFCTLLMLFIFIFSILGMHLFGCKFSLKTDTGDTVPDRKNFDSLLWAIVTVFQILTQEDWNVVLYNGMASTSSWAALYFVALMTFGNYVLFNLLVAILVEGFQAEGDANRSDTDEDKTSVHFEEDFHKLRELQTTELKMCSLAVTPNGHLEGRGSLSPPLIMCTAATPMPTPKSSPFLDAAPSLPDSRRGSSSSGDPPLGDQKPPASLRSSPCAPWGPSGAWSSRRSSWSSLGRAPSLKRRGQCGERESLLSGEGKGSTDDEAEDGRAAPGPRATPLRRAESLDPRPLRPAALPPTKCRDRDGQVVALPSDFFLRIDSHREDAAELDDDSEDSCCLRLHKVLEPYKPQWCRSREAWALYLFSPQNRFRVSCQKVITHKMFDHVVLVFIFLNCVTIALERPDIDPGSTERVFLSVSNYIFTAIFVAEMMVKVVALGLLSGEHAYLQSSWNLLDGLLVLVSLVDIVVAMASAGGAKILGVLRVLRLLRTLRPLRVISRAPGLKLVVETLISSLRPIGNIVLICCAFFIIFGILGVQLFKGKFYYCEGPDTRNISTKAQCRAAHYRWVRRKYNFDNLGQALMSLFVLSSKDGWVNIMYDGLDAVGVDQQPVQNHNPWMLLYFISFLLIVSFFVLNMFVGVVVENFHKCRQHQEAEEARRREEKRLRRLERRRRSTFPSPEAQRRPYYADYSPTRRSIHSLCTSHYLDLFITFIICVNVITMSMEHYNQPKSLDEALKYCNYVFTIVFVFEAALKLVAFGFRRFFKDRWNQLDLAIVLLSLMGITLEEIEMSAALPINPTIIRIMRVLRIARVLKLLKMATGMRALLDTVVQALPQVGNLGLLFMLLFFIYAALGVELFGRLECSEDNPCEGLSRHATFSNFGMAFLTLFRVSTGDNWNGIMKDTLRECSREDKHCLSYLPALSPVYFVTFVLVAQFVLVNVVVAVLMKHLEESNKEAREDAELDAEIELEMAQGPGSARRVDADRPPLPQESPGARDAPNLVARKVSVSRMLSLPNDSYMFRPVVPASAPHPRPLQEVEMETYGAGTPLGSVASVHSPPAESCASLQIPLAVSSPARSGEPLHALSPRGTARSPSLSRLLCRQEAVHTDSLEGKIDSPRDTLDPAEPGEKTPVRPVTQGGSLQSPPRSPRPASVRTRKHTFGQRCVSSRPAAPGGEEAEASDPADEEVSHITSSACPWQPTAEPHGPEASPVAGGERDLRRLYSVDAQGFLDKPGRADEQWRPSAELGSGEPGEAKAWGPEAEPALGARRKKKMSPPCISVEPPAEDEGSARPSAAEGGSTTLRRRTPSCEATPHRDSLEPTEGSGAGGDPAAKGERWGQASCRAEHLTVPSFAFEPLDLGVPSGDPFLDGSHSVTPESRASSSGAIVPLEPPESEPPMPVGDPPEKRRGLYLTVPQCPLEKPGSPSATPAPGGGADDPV
Format: cell-based
Method in brief: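 HEK293 cells stably expressing human Cav3.2 were loaded with Fluo-4-AM. Compounds diluted in TEAC buffer (pH 7.2) were preincubated for 3 min, then Ca2+ entry was triggered by 10 mM final CaCl2. Inhibition curves were fitted sigmoidally to the area under the fluorescence trace.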

| Compound | IC50 |
| --- | --- |
| N#Cc1cc(Cn2ccc(NC(=O)Cc3ccc(N4CCCC4)nc3)n2)ccc1F [Example 307, N-[1-(3-Cyano-4-fluoro-benzyl)-1H-pyrazol-3-yl]-2-(6-pyrrolidin-1-yl-pyridin-3-yl)-acetamide] | 42 nM |
| N#Cc1ccc(Cn2ccc(NC(=O)Cc3ccc(N4CC[C@H](F)C4)nc3)n2)cc1 [Example 154, N-[1-(4-Cyano-benzyl)-1H-pyrazol-3-yl]-2-[6-((S)-3-fluoro-pyrrolidin-1-yl)-pyridin-3-yl]-acetamide] | 78 nM |
| CC(C)c1ccc(CC(=O)Nc2ccn(Cc3ccc(C#N)c(C(F)F)n3)n2)cc1 [Example 385, N-[1-(5-Cyano-6-difluoromethyl-pyridin-2-ylmethyl)-1H-pyrazol-3-yl]-2-(4-isopropyl-phenyl)-acetamide] | 44 nM |
| N#Cc1ccc(Cn2ccc(NC(=O)Cc3ccc(C4(C#N)CC4)cc3)n2)nc1 [Example 354, 2-[4-(1-Cyano-cyclopropyl)-phenyl]-N-[1-(5-cyano-pyridin-2-ylmethyl)-1H-pyrazol-3-yl]-acetamide] | 248 nM |
| CC(C)c1ccc(CC(=O)Nc2ccn(Cc3cc(Cl)c(C#N)cn3)n2)cc1 [Example 157, N-[1-(4-Chloro-5-cyano-pyridin-2-ylmethyl)-1H-pyrazol-3-yl]-2-(4-isopropyl-phenyl)-acetamide] | 34 nM |
| N#Cc1c(F)cc(Cn2ccc(NC(=O)Cc3ccc(N4CCCC4)nc3)n2)cc1F [Example 351, N-[1-(4-Cyano-3,5-difluoro-benzyl)-1H-pyrazol-3-yl]-2-(6-pyrrolidin-1-yl-pyridin-3-yl)-acetamide] | 65 nM |
| CCc1nc(Cn2ccc(NC(=O)Cc3ccc(C(C)C)cc3)n2)ccc1C#N [Example 115, N-[1-(5-Cyano-6-ethyl-pyridin-2-ylmethyl)-1H-pyrazol-3-yl]-2-(4-isopropyl-phenyl)-acetamide] | 57 nM |
| CC1(COc2ccc(CC(=O)Nc3ccn(Cc4ccc(C#N)c(F)c4)n3)cc2)COC1 [Example 263, N-[1-(4-Cyano-3-fluoro-benzyl)-1H-pyrazol-3-yl]-2-[4-(3-methyl-oxetan-3-ylmethoxy)-phenyl]-acetamide] | 97 nM |
| N#Cc1c(F)cc(Cn2ccc(NC(=O)Cc3ccc(C4(F)COC4)cc3)n2)cc1F [Example 347, N-[1-(4-Cyano-3,5-difluoro-benzyl)-1H-pyrazol-3-yl]-2-[4-(3-fluoro-oxetan-3-yl)-phenyl]-acetamide] | 85 nM |
| Cn1ncc2cc(CC(=O)Nc3ccn(Cc4ccc(C#N)cn4)n3)ccc21 [Example 249, N-[1-(5-Cyano-pyridin-2-ylmethyl)-1H-pyrazol-3-yl]-2-(1-methyl-1H-indazol-5-yl)-acetamide] | 295 nM |
| CC1(COc2ccc(CC(=O)Nc3ccn(Cc4ccc(C#N)cn4)n3)cc2)CC(F)(F)C1 [Example 303, N-[1-(5-Cyano-pyridin-2-ylmethyl)-1H-pyrazol-3-yl]-2-[4-(3,3-difluoro-1-methyl-cyclobutylmethoxy)-phenyl]-acetamide] | 51 nM |
| O=C(Cc1ccc2cccnc2c1)Nc1ccn(Cc2ccc(F)c(F)c2)n1 [Example 206, N-[1-(3,4-Difluoro-benzyl)-1H-pyrazol-3-yl]-2-quinolin-7-yl-acetamide] | 50 nM |
| COc1ccc(Cn2ccc(NC(=O)Cc3ccc(N(C)CC4CC4)nc3)n2)cc1 [Example 188, 2-[6-(Cyclopropylmethyl-methyl-amino)-pyridin-3-yl]-N-[1-(4-methoxy-benzyl)-1H-pyrazol-3-yl]-acetamide] | 60 nM |
| N#Cc1ccc(Cn2ccc(NC(=O)Cc3ccc(N4CC(F)C4)cc3)n2)cc1 [Example 72, N-[1-(4-Cyano-benzyl)-1H-pyrazol-3-yl]-2-[4-(3-fluoro-azetidin-l-yl)-phenyl]-acetamide] | 46 nM |
| Cc1nccnc1-c1ccc(CC(=O)Nc2ccn(Cc3ccc(F)cc3)n2)cc1 [Example 80, N-[1-(4-Fluoro-benzyl)-1H-pyrazol-3-yl]-2-[4-(3-methyl-pyrazin-2-yl)-phenyl]-acetamide] | 92 nM |
| N#Cc1ccc(Cn2ccc(NC(=O)Cc3ccc(N4CC[C@H](F)C4)cc3)n2)nc1 [Example 90, N-[1-(5-Cyano-pyridin-2-ylmethyl)-1H-pyrazol-3-yl]-2-[4-((S)-3-fluoro-pyrrolidin-1-yl)-phenyl]-acetamide] | 75 nM |
| N#Cc1ccc(Cn2ccc(NC(=O)Cc3ccc(OCC4(F)COC4)cc3)n2)cc1F [Example 257, N-[1-(4-Cyano-3-fluoro-benzyl)-1H-pyrazol-3-yl]-2-[4-(3-fluoro-oxetan-3-ylmethoxy)-phenyl]-acetamide] | 76 nM |
| O=C(Cc1ccc(-c2ccncn2)cc1)Nc1ccn(Cc2ccc(F)cc2)n1 [Example 87, N-[1-(4-Fluoro-benzyl)-1H-pyrazol-3-yl]-2-(4-pyrimidin-4-yl-phenyl)-acetamide] | 157 nM |
| N#Cc1ccc(Cn2ccc(NC(=O)Cc3ccc(OC4CC(F)(F)C4)cc3)n2)cc1F [Example 261, N-[1-(4-Cyano-3-fluoro-benzyl)-1H-pyrazol-3-yl]-2-[4-(3,3-difluoro-cyclobutoxy)-phenyl]-acetamide] | 15 nM |
| N#Cc1cc(Cn2ccc(NC(=O)Cc3ccc(OC4COC4)cc3)n2)ccc1F [Example 269, N-[1-(3-Cyano-4-fluoro-benzyl)-1H-pyrazol-3-yl]-2-[4-(oxetan-3-yloxy)-phenyl]-acetamide] | 162 nM |
| N#Cc1ccc(Cn2ccc(NC(=O)Cc3ccc(C4(O)CC4)cc3)n2)nc1 [Example 356, N-[1-(5-Cyano-pyridin-2-ylmethyl)-1H-pyrazol-3-yl]-2-[4-(1-hydroxy-cyclopropyl)-phenyl]-acetamide] | 327 nM |

The remaining molecules from weak to strong by IC50, led by results:

| IC50 | Compound |
| --- | --- |
| 33 nM | COCCN(C)c1ccc(CC(=O)Nc2ccn(Cc3ccc(F)c(F)c3)n2)cn1 [Example 180, N-[1-(3,4-Difluoro-benzyl)-1H-pyrazol-3-yl]-2-{6-[(2-methoxy-ethyl)-methyl-amino]-pyridin-3-yl}-acetamide] |
| 30 nM | COC(C)c1ccc(CC(=O)Nc2ccn(Cc3ccc(F)cc3)n2)cc1 (racemic) [Example 201, rac-N-[1-(4-Fluoro-benzyl)-1H-pyrazol-3-yl]-2-[4-(1-methoxy-ethyl)-phenyl]-acetamide] |
| 27 nM | Cn1ccc2ccc(CC(=O)Nc3ccn(Cc4ccc(F)c(C#N)c4)n3)cc21 [Example 309, N-[1-(3-Cyano-4-fluoro-benzyl)-1H-pyrazol-3-yl]-2-(1-methyl-1H-indol-6-yl)-acetamide] |
| 23 nM | N#Cc1ccc(Cn2ccc(NC(=O)Cc3ccc(N4CCC(F)(F)C4)cc3)n2)nc1 [Example 91, N-[1-(5-Cyano-pyridin-2-ylmethyl)-1H-pyrazol-3-yl]-2-[4-(3,3-difluoro-pyrrolidin-1-yl)-phenyl]-acetamide] |
| 20 nM | CN(C)c1ccc(CC(=O)Nc2ccn(Cc3ccc(Cl)cc3)n2)cn1 [Example 5, N-[1-(4-Chloro-benzyl)-1H-pyrazol-3-yl]-2-(6-dimethylamino-pyridin-3-yl)-acetamide] |
| 19 nM | O=C(Cc1ccc(N2CC(F)(F)C2)nc1)Nc1ccn(Cc2ccc(F)c(F)c2)n1 [Example 143, 2-[6-(3,3-Difluoro-azetidin-1-yl)-pyridin-3-yl]-N-[1-(3,4-difluoro-benzyl)-1H-pyrazol-3-yl]-acetamide] |
| 18 nM | N#Cc1nc(Cn2ccc(NC(=O)Cc3ccc(C4(C(F)(F)F)CC4)cc3)n2)ccc1F [Example 365, N-[1-(6-Cyano-5-fluoro-pyridin-2-ylmethyl)-1H-pyrazol-3-yl]-2-[4-(1-trifluoromethyl-cyclopropyl)-phenyl]-acetamide] |
| 16 nM | COc1ccc(Cn2ccc(NC(=O)Cc3ccc(N4CC(F)(F)C4)cc3)n2)cc1 [Example 51, 2-[4-(3,3-Difluoro-azetidin-1-yl)-phenyl]-N-[1-(4-methoxy-benzyl)-1H-pyrazol-3-yl]-acetamide] |
| 15 nM | N#Cc1ccc(Cn2ccc(NC(=O)Cc3ccc(C4(C(F)(F)F)CC4)cc3)n2)cc1 [Example 277, N-[1-(4-Cyano-benzyl)-1H-pyrazol-3-yl]-2-[4-(1-trifluoromethyl-cyclopropyl)-phenyl]-acetamide] |
| 13 nM | CN(C)c1ccc(CC(=O)Nc2ccn(Cc3cc(F)c(F)c(F)c3)n2)cc1 [Example 24, 2-(4-Dimethylamino-phenyl)-N-[1-(3,4,5-trifluoro-benzyl)-1H-pyrazol-3-yl]-acetamide] |
| 9.6 nM | Cc1cn(C)c2cc(CC(=O)Nc3ccn(Cc4ccc(C#N)cn4)n3)ccc12 [Example 331, N-[1-(5-Cyano-pyridin-2-ylmethyl)-1H-pyrazol-3-yl]-2-(1,3-dimethyl-1H-indol-6-yl)-acetamide] |
| 7.9 nM | COc1ccc(Cn2ccc(NC(=O)Cc3ccc(C(C)C)cc3)n2)cc1 [Example 7, 2-(4-Isopropyl-phenyl)-N-[1-(4-methoxy-benzyl)-1H-pyrazol-3-yl]-acetamide] |
| 6.4 nM | CN(C)c1ccc(CC(=O)Nc2ccn(Cc3ccc(F)c(C(F)(F)F)c3)n2)cc1 [Example 23, 2-(4-Dimethylamino-phenyl)-N-[1-(4-fluoro-3-trifluoromethyl-benzyl)-1H-pyrazol-3-yl]-acetamide] |
| 4.8 nM | Cc1cn(C)c2cc(CC(=O)Nc3ccn(Cc4ccc(F)c(C#N)c4)n3)ccc12 [Example 330, N-[1-(3-Cyano-4-fluoro-benzyl)-1H-pyrazol-3-yl]-2-(1,3-dimethyl-1H-indol-6-yl)-acetamide] |
| 4.8 nM | CCN(CC)c1ccc(CC(=O)Nc2ccn(Cc3ccc(F)c(F)c3)n2)cc1 [Example 113, 2-(4-Diethylamino-phenyl)-N-[1-(3,4-difluoro-benzyl)-1H-pyrazol-3-yl]-acetamide] |
| 3.8 nM | O=C(Cc1ccc(N2CC(F)C2)cc1)Nc1ccn(Cc2ccc(F)c(F)c2)n1 [Example 62, N-[1-(3,4-Difluoro-benzyl)-1H-pyrazol-3-yl]-2-[4-(3-fluoro-azetidin-1-yl)-phenyl]-acetamide] |
